The source of these data is patent publication US20250367117A1, “VITAMIN C-ENCAPSULATED LIPOSOME AND PREPARATION METHOD THEREFOR” (Hankook Liposome Co., Ltd., priority 2022, published 2025).

Structures are written as SMILES.

What is called Cmax is the peak of the concentration-time curve. A word on the Tmax: it is the time from dosing to the highest level.

This data set in a line: Bioavailability after oral administration: blood (serum) vitamin C concentration by HPLC. The note with it: male, SD rat, 10 ml(200 mg)/kg. The class given is in vivo. Here is the method:
The experimental animals used were SD rats (Samtago BIO KOREA Co., Ltd.), which have anatomical and physiological characteristics similar to humans and have the advantage of being useful as a pharmacokinetic model. The SD rats were male, 7-week-old (240-260 g), and were raised at a temperature of 20-24° C. and a relative humidity of 40-70%, and general symptoms were observed once a day for 5 days before the test. Solid feed for experimental animals (Purina Feed®) was provided, and the rats were allowed to consume it freely. […] As a control group, food vitamin C (purity 99.9%) was used, and the weight was measured and dissolved in purified water to prepare it. […] After putting the test substance into a 3 ml syringe, the zonde for rat oral administration was combined, and the test substance was administrated into the rat. For blood collection, about 300 μl of blood was collected from the jugular vein of all subjects in each group using a disposable syringe (1 ml, 26G, BD Biosciences, USA) at the scheduled time after administration. The blood was placed in a clean, light-shielded 1.5 ml amber tube, allowed to coagulate for 30 minutes at room temperature, and then centrifuged to separate the serum. The oral administration time points were 0, 1, 2, 4, 6, 8, 10, 12, and 24 hours (total of 9 time points). For blood sample separation and analysis, the harvested whole blood was coagulated and centrifuged at 3,000 rpm for 10 minutes using a centrifuge (Micro17R, Hanil, KOR) to separate the serum. Each 100 μl×1 tube was placed in a 1.5 ml Amber tube labeled with the test type, animal number, and blood collection time and stored in an ultra-low temperature freezer (approximately −70° C.). When testing, the stored samples were thawed at room temperature and the blood concentration of vitamin C was analyzed using HPLC (Alliance e2695, Waters, USA). […] For sample processing and analysis, 70 μL of the sample was taken and placed in a microtube, 70 μL of metaphosphoric acid (0.1 g/mL in water) was added, and then mixed using a vortexer for 30 seconds. The mixture was centrifuged at 14,000 rpm for 10 minutes, and the supernatant was transferred to a vial and injected into the HPLC for analysis. Since vitamin C is an endogenous substance, it was used after serum dialysis.

In the case of `O=C1O[C@H]([C@@H](O)CO)C(O)=C1O` [vitamin C, ascorbic acid], the Cmax came out at 12000 ng/mL and the time of peak concentration (Tmax) was determined as 7.67 h. For the setting “read-out: AUC0-24 of vitamin C”, the AUC(0-t) is 234 µg·h/mL. Besides, for the setting “read-out: T1/2 of vitamin C (converted)”, the half-life was 27.8 h.
